Data from patent US11879137B2, “Treatment of type 1 diabetes and autoimmune diseases or disorders” (THE CHILDREN'S MEDICAL CENTER CORPORATION, priority 2017, dated 2024).

Test system: KL cells from bone marrow of NOD mice
Test: Flow cytometry of murine KL cells modulated with PGE2 or dmPGE2
Assay type: cell-based
Conditions: for CXCR4 among chemokine receptors on treated KL cells: chemokine receptor profile; for expression of PD-L2, PD-1, CD80 and CD40: vs unmodulated KL cells
From the text: FIGS. 19A-19G show the profile of murine KL cells. (FIG. 19A-19B) Representative flow cytometric analysis and quantitative bar graph of PD-L1 expression on Lineage^−c-kit^+ (KL) cells from NOD mice pre- and post-pharmacologic modulation with PGE2. (FIG. 19C-19D) Representative flow cytometric analysis and quantitative bar graph of CXCR4 expression on KL cells from NOD mice pre- and post-pharmacologic modulation with PGE2. (FIG. 19E) Quantitative bar graph of flow cytometric expression of positive and negative costimulatory molecules (CD40, CD80, CD86, PD-L1, PD-L2 and PD-1) and of select pro-inflammatory and anti-inflammatory cytokines (IFN-γ, IL-10, IL-4) in PGE2-modulated KL cells from NOD mice as compared to those modulated with a selected PGE2 clinical grade agonist (dmPGE2) and compared to unmodulated KL cells isolated from the bone marrow of normoglycemic NOD mice. (FIG. 19F) Flow cytometric expression of selected chemokine receptors (CXCR4, CCR2, CCR4, CCR5, CCR6, CCR7, CCR8, and CXCR3) in PGE2-modulated KL cells from NOD mice as compared to those modulated with a selected PGE2 clinical grade agonist (dmPGE2) and to unmodulated KL cells isolated from the bone marrow of normoglycemic NOD mice. (FIG. 19G) Quantitative bar graph of flow cytometric expression of chemokines receptors (CCR2, CCR4, CCR5, CCR6, CCR7, CCR8, CXCR3 and CXCR4) in PGE2-modulated KL cells from NOD mice as compared to those modulated with a selected PGE2 clinical grade agonist (dmPGE2) and compared to unmodulated KL cells isolated from the bone marrow of normoglycemic NOD mice. […] Abbreviations: KL, Lineage^−c-kit^+ cells.
Murine regulatory KL cell modulation. Murine bone marrow KL (c-Kit+Lineage-) cells were isolated using magnetic beads and MACS® separation columns (Miltenyi Biotec, San Diego, CA) and ˜2×10^5 cells were plated in a U-bottomed 96-well plate with 200 μl of stem cell medium, Stemspan-SFEMII (STEMCELL Technologies, Cambridge, MA) and PGE2 (PromoKine, PromoCell Gmbh, Germany) was added at day 0 and day 1, at a concentration of 10 μM.
Flow cytometric analysis and intracellular cytokine staining. Flow cytometry was performed to analyze surface expression markers of PGE2-modulated HSPCs and dmPGE2 (16, 16-dimethyl PGE2)-modulated HSPCs. Anti-mouse PD-L1, PD-L2, PD-1, CD40, CD80, CD86, CD4, CD8, Ly-6G (Gr-1), B220, CD3, CXCR4, CCR2, CCR4, CCR5, CCR6, CCR7, CCR8, CXCR3, IL-4, IL-10 and IFN-γ were purchased from BD Biosciences, eBioscience (San Diego, CA) and BioLegend. The following antibodies corresponded to isotype controls for the murine antibodies above: PE mouse IgG1, κ isotype ctrl, Armenian hamster IgG; APC mouse IgG2b, κ isotype ctrl, Armenian hamster IgG. Cells were subjected to FACS analysis and were run on a FACSCalibur™ (Becton Dickinson). Data were analyzed using FlowJo software version 8.7.3 (Treestar).
Murine PGE2-modulated HSPCs abrogate the autoimmune response in vitro. The feasibility of pharmacological modulation of PD-L1 with PGE2 was next explored in murine HSPCs. […] Moreover, the chemokine receptor profile of PGE2-modulated KL cells as compared to dmPGE2-modulated KL cells and unmodulated KL cells was explored in order to assess which chemokines are potentially involved in the homing of PGE2-modulated and dmPGE2-modulated KL cells. […] The immunoregulatory properties of PGE2-modulated KL cells was next explored in an autoimmune setting in vitro. PGE2-modulated KL cells generated from normoglycemic NOD mice were co-cultured at ratios of 1:1, 1:5 and 1:10 (KL cells to T cells) with CD11c+ DCs and BDC2.5 transgenic CD4+CD25− T cells in the presence of BDC2.5 peptide. […] Indeed, PGE2-modulated KL cells exerted a robust immunoregulatory effect even if added at low ratios (1:5 PGE2-treated KL cell to T cells). A less pronounced effect was observed when unmodulated KL were added to the assays. […] PGE2-modulated HSPCs are thus endowed with immunoregulatory properties and are capable of abrogating the autoimmune response in vitro. […]

| SMILES | CXCR4 expression on KL cells (FACS) | PD-L1 expression on KL cells (FACS, 10 μM day 0 and day 1) | CXCR4 among chemokine receptors on treated KL cells | expression of PD-L2, PD-1, CD80 and CD40 |
| --- | --- | --- | --- | --- |
| CCCCC[C@H](O)/C=C/[C@H]1[C@H](O)CC(=O)[C@@H]1C/C=C\CCCC(=O)O [PGE2, prostaglandin E2] | markedly upregulated | upregulation | most expressed | upregulation |
| CCCCC(C)(C)[C@H](O)/C=C/[C@H]1[C@H](O)CC(=O)[C@@H]1C/C=C\CCCC(=O)O [16,16-dimethyl PGE2] |  |  | most expressed | similarly upregulated |
